Values joined by “and” are separate entries in the source; they are usually repeats but may differ in a detail not shown here. Equal values may be shown once.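 The compound was tested at five concentrations on cells cultured in 96-well plates, with a 48-hour exposure period. At the GI50, growth is halved. At the TGI there is no net growth.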
Tests used:
Assay in all cases: inhibition of tumour cell growth, NCI panel, 48 h
[1] = tested on: SK-MEL-28 melanoma
[2] = tested on: OVCAR-5 ovarian
[3] = tested on: HOP-62 NSCLC
[4] = tested on: M14 melanoma
[5] = tested on: NCI-H522 lung
[6] = tested on: RXF 393 renal
[7] = tested on: DU-145 prostate
[8] = tested on: KM12 colon
[9] = tested on: SK-MEL-2 melanoma
[10] = tested on: NCI-H23 lung

| SMILES | TGI [1] [µM] | TGI [2] | TGI [3] | TGI [4] | TGI [5] | TGI [6] [µM] | TGI [7] | TGI [8] | TGI [9] | TGI [10] | GI50 [1] [µM] | GI50 [2] [µM] | GI50 [3] [µM] | GI50 [4] [µM] | GI50 [5] [µM] | GI50 [6] [µM] | GI50 [7] [µM] | GI50 [8] [µM] | GI50 [9] [µM] | GI50 [10] [µM] |
| --- | --- | --- | --- | --- | --- | --- | --- | --- | --- | --- | --- | --- | --- | --- | --- | --- | --- | --- | --- | --- |
| O=C1Nc2ccc(Br)cc2C1=Nc1cccnc1 | 42 | > 100 µM | 74.2 µM | 31.5 µM | 29.5 µM | 29.1 | > 100 µM | 99.3 µM | 57.2 µM | 45.4 µM |  |  |  |  |  |  |  |  |  |  |
| C#CC#CC#CC#CC#CC#CC#CC#CCC1OCC(COC(=O)O[C@@H](C(=O)O[C@H]2C[C@@]3(O)[C@@H](OC(=O)c4ccccc4)[C@@H]4[C@]5(OC(C)=O)CO[C@@H]5C[C@H](O)[C@@]4(C)C(=O)[C@H](OC(C)=O)C(=C2C)C3(C)C)[C@@H](NC(=O)c2ccccc2)c2ccccc2)O1 (stereo partly drawn) | > 33.3 | > 33.3 µM | > 33.3 µM |  | > 33.3 µM | > 8.96 |  | > 33.3 µM | > 33.3 µM | > 33.3 µM | 0.25 | 0.25 | 0.775 | 0.16 | 0.166 | 0.599 | 0.0961 | 0.0986 | 0.603 | 0.465 |
| COc1cccc(N2C(=O)C3c4[nH]c5ccccc5c4C4CCCC4C3C2=O)c1 (stereo not drawn) | > 10 | > 10 µM | 6.25 µM | > 10 µM | > 10 µM | > 10 | > 10 µM | > 10 µM | > 10 µM | > 10 µM |  |  |  |  |  |  |  |  |  |  |
| Cc1cc(NC(=O)NC(=O)c2ccccc2NC(=O)C(C)N)ccc1Oc1ncc(Br)cn1 (stereo not drawn) | 37.4 | 25.1 µM | 4.3 µM | 3.71 µM | 0.334 µM | 0.776 | 19.2 µM | 19.4 µM | 6.58 µM | 8.56 µM |  |  |  |  |  |  |  |  |  |  |
| O=c1cnn(C2OC(CO)C(O)C2O)c(=S)[nH]1 (stereo not drawn) | > 100 | > 100 µM | > 100 µM | > 100 µM | > 55.4 µM | > 100 | > 100 µM | > 100 µM | > 100 µM | > 100 µM |  |  |  |  |  |  |  |  |  |  |
| COC(C(=O)NN)c1ccccc1 (stereo not drawn) | > 100 | > 100 µM | > 100 µM | > 100 µM | > 100 µM | > 100 | > 100 µM | > 100 µM | > 100 µM | > 100 µM |  |  |  |  |  |  |  |  |  |  |
| CC1(C)CC(O)C(C)(C)[C@@H](O)C1 (stereo partly drawn) | > 100 | > 100 µM | > 100 µM | > 100 µM | > 100 µM | > 100 | > 100 µM | > 100 µM | > 100 µM | > 100 µM |  |  |  |  |  |  |  |  |  |  |
| Cc1ccccc1OCC(O)CN1CCN(c2ccc(Cl)cc2)CC1 (stereo not drawn) | 33.5 | 34.5 µM | 32.3 µM | 34.6 µM | 29.2 µM | 37.8 | 32.7 µM | 36.9 µM | 35 µM | 34.5 µM | 18.7 | 17.4 | 15.9 | 17 | 14.1 | 20.2 | 17.9 | 17.8 | 18.7 | 15.8 |
| Cc1[nH]c2ccccc2c1CCCO | > 100 | > 100 µM | > 100 µM | > 100 µM | > 100 µM | > 100 | > 100 µM | > 100 µM | > 100 µM | > 100 µM | > 100 | > 100 | > 100 | > 100 | > 100 | > 100 | > 100 | > 100 | > 100 | > 100 |
| C[C@H]1CC[C@@]2(NC1)O[C@H]1C[C@H]3[C@@H]4CC[C@H]5C[C@@H](O)CC[C@]5(C)[C@H]4CC[C@]3(C)[C@H]1[C@@H]2C | 50 | 18.4 µM and > 100 µM | 19.4 µM and > 100 µM | 50 µM and > 100 µM | 29.3 µM and > 100 µM | > 50 | 50 µM and > 100 µM | 50 µM and > 100 µM | 23.9 µM and > 100 µM | 19.7 µM and > 100 µM | 17.9 | 8.71 | 9.72 | 18.1 | 13.6 | > 50 | 30.3 | 19 | 10.7 | 8.92 |
| Cc1c(C(=O)Nc2ccccc2)sc2ncn(Cc3cccc(Cl)c3)c(=O)c12 | > 100 | 94.5 µM | 45.8 µM | > 100 µM | > 100 µM | 71.4 | > 100 µM | > 100 µM | > 100 µM | > 100 µM | > 100 | 27 | 18.3 | 43.6 | 19 | 24.8 | 34.9 | 99 | 49.2 | 6.5 |
| O=C(/C=C/Sc1cc(C(F)(F)F)cc(C(F)(F)F)c1)c1ccc(Cl)cc1 | 17.1 | 33.7 µM | 32.7 µM | 3.36 µM | 12.4 µM | 25.3 | 25.1 µM | 27.8 µM | 63.1 µM | 31.3 µM | 4.74 | 18.6 | 18.3 | 1.67 | 3.42 | 12 | 12.3 | 13.5 | 31.1 | 17 |
| O=C(Nc1cccc(-n2cc(-c3ccncc3)c(-c3ccc(Cl)c(O)c3)n2)c1)Nc1cc(C(F)(F)F)cc(C(F)(F)F)c1 | 1.61 | 1.88 µM | 1.81 µM | 1.9 µM | 2.1 µM | 2.21 | 2.94 µM | 1.35 µM | 2.18 µM | 2.86 µM | 0.807 | 0.846 | 0.902 | 0.692 | 0.707 | 0.935 | 0.963 | 0.511 | 0.999 | 0.998 |
